Laboratory results taken from patent publication US20250228841A1, “COMPOSITIONS AFFECTING PIGMENT PRODUCTION AND METHODS FOR TREATMENT OF BACTERIAL DISEASES” (Aptorum Therapeutics Limited, priority 2024, published 2025).
Each block holds one compound with its values, some of them ahead of it.

Tests used:
[1] = Solubility in solutions simulating gastric juice and intestinal fluid; assay type: physicochemical
Description: The following table (Table 4) illustrates the solubility of two different compounds, NP16-XL-016 (hereinafter as “IM032”) and NP16-XL-061 (hereinafter as “IM032-C1”), in two solutions with different pH values simulating the pH of gastric juice and human intestinal fluid using HCl and phosphate buffer respectively.

S. aureus COL [2] = assay: Bactericidal activity of human polymorphonuclear leukocytes (neutrophil killing); assay type: cell-based, Staphylococcus aureus; settings: NP16-treated S. aureus COL
Experimental: The killing of S. aureus by human polymorphonuclear leukocytes (PMNs) was determined as previously described, with some modifications. Briefly, PMNs (10^6) were mixed with ˜10^7 opsonized S. aureus bacteria MOI=10 in 24-well tissue culture plates. After centrifuged at 380 g for 8 min, plates were incubated at 37° C. for up to 1.5 h. PMNs were lysed with saponin (20 min on ice) and plated on BHIA plates. The percent survival was calculated by normalized with time zero. Statistics were performed with the Student's t-test (GraphPad Prism).

MDCK cells = assay: Cytotoxic activity on MDCK cells; assay type: cell-based
S. aureus COL [3] = assay: Murine intraperitoneal infection model, liver and spleen CFU; assay type: in vivo, Staphylococcus aureus; settings: BALB/c mice, i.p. S. aureus COL; 0.35 mg twice per day (days -1, 0, 1 and 2); 72 hours; P<0.01
Experimental: (§1) For other S. aureus sub-type, eight-to ten-week-old female BALB/c mice were injected intraperitoneally (i.p) with 4×10^8 CFUs of early stationary phase S. aureus COL. After 3 d, animals were euthanized, the liver and spleen were isolated, homogenized in PBS, and plated on to obtain viable counts. For the treatment study, mice were randomized into two groups at the start of the experiment and administered, i.p., either 0.35 mg of NP16 or PBS with 5% Tween-80 as a control, twice per day, starting on d-1 to d 2 (a total of eight doses for each). Intraperitoneal challenge with 4×10^8 CFUs of early stationary phases S. aureus COL was performed on d 0. The mice were sacrificed on d 3 for enumeration of bacterial CFUs in liver and spleen homogenates.

S. aureus COL [4] = assay: Hydrogen peroxide susceptibility assay; assay type: cell-based, Staphylococcus aureus; settings: S. aureus COL grown with NP16 (40 μM); 440 mM H2O2, 1 hr
Experimental: (§2) S. aureus was grown in BHI with or without NP16 (40 μM). After 2 days, bacteria were washed twice in PBS, diluted to a concentration of 1×10^7 CFUs per 100 μl reaction mixture in a 96-well plate. Hydrogen peroxide (H2O2) in PBS was added to a 440 mM final concentration, and the plate was incubated for 1 hr at 37° C. with shaking. The reaction was stopped by the addition of 1,000 U/ml of exogenous catalase (Sigma-Aldrich, St. Louis, MO), and bacterial viability was assessed by plating dilutions on BHI agar plates.

[5] = tested on: non-pigmented strain RN6390; assay: Hydrogen peroxide susceptibility assay, non-pigmented strain; assay type: cell-based, Staphylococcus aureus
Experimental: as §2

[6] = tested on: clinical isolate S. aureus strain AE052; assay: Murine intraperitoneal infection model, kidney CFU; assay type: in vivo, Staphylococcus aureus
Experimental: as §1
For the clinical isolate S. aureus strain AE052, all operations were similar to those used for the COL strain, except 10^8 CFUs of early stationary phase bacteria were used in the infection model, and kidneys were collected for monitoring bacterial loads. Statistics were performed using the Student's t-test (GraphPad Prism).

[7] = tested on: MRSA USA 300 ATCC BAA-1717; assay: Mouse (LD0-20) bacteremia model, bacterial counts in organs; assay type: in vivo, Staphylococcus aureus; settings: BALB/c mice, IV MRSA USA 300 ATCC BAA-1717; IM032 0.3-30 mg/kg PO BID 7 days; Day 7
Experimental: A bacterial strain, USA 300 MRSA BAA-1717, was used to infect BALB/c (female). Test animals were intravenously (IV) inoculated with MRSA ATCC BAA-1717 at a target density of 1×10^6 CFU/mouse. Test substance, IM032 at 0, 0.3, 1, 3, 10, and 30 mg/kg, was administered orally (PO) twice daily (BID) for a total of 7 dosing days.
The reference agents, vancomycin at 3 mg/kg was administered IV once (QD) at 1 h after infection for 7 consecutive days.
With reference to FIG. 9, the animals were IV inoculated with MRSA USA 300 ATCC BAA-1717 at 1.02×10^6 CFU/mouse. IM032 at 0.3, 1, 3, 10, and 30 mg/kg were orally (PO) administrated twice daily (BID) at 1 and 7 h after the infection on Day 1, and then twice daily at 6-hour intervals in the next 6 days for a total of 7 days of dosing. Vancomycin, at 3 mg/kg, was administered intravenously (IV) at 1 h after the infection on Day 1 and then once a day in the next 6 days for a total of 7 days of dosing. All the test animals in the IM032 treatment, reference vancomycin and the vehicle control groups were sacrificed at 168 hours (Day 7) after the infection. […] Statistical significance compared to the respective vehicle control was determined by unpaired student t-tests. […]
With reference to FIG. 10, bacterial density in lung and liver were determined. […] Statistical significance compared to the respective vehicle control was determined by unpaired student t-tests. […]

[8] = tested on: methicillin-resistant S. aureus (MRSA); assay: Mouse MRSA skin infection model, wound closure; assay type: in vivo, Staphylococcus aureus
Description: Visual wound healing/closure in different treatment groups of mice can be observed in FIG. 11B.

[9] = tested on: 10 different Staphylococcus aureus (S. aureus) strains; assay: Inhibition of staphyloxanthin production by IM032 in different S. aureus strains (overall); assay type: cell-based; settings: any concentration of IM032 (up to 4,000 nM)
Experimental: Compound IM032 was evaluated for its in vitro efficacy to inhibit staphyloxanthin production in 10 different Staphylococcus aureus (S. aureus) strains, SH1000, HG003, ATCC29213, ATCC700698, COL, JE2, LAC, USA300-3, Newman and ST239III.
The test item was dissolved at 44.9 mg/mL in DMSO at 37° C., aliquoted into several tubes, and stored at −20° C. until use. On the day of testing, a stock solution was serially diluted to testing concentrations with DMSO. All solutions were vortexed and mixed with a pipette to achieve homogeneity immediately before dilution. A correction factor for purity was not applied to the test item preparations.
Each test item solution (6 μL) was combined with 0.6 mL of S. aureus culture in brain heart infusion broth (CFU per well=1×10^7). 12-wells repeats were performed for each concentration in 96-well 2-mL plates. The plates were then incubated in a shaker at 37° C., 250 rpm for 24 hours. […] After centrifugation, 100 μL of supernatant was transferred to a 96-well cell culture plate and OD450 was measured. The relative pigment production at each tested concentration was calculated as follows: […]
The IC50 for each test was determined based on the calculated inhibition ratio from above with Prism 6.0 by employing a non-linear regression (four parameters) fitting method with assigned bottom and top at 0.05 and 0.95 respectively. […]

- Solubility in pH 2 (0.1N HCl + 0.1% Tween 80) - simulating human stomach ([1]; pH 2): <LOQ
Compound: O=C(/C=C/c1ccccc1Cl)Nc1ccc(S(=O)(=O)N2CCCCC2)cc1 [IM032-Cl, 3-(6-chlorophenyl)-N-[4-(1-piperidine-1-sulfonyl)phenyl] acrylamide]

Compound: O=C(/C=C/c1ccccc1)Nc1ccc(S(=O)(=O)N2CCCC2)cc1 [NP16, 3-phenyl-N-[4-(1-pyrrolidinyl-sulfonyl)phenyl]acrylamide]
- susceptibility to killing by neutrophils (S. aureus COL [2]): increased susceptibility
- effect on the growth of MDCK cells (cytotoxic activity) (MDCK cells): no effect
- bacterial counts in the livers and spleens versus control group (S. aureus COL [3]): significantly lower
- susceptibility to killing by hydrogen peroxide (S. aureus COL [4]): increased susceptibility
- susceptibility to hydrogen peroxide killing irrespective of treatment [5]: similar
- mice with kidney bacterial counts below the detection threshold ([6]; AE052 infection, n=10, control group 2 of 10): 6 of 10
- bacterial counts in the kidneys versus control group ([6]; mice infected with AE052, 0.35 mg twice per day, P<0.001): significantly lower

Compound: O=C(/C=C/c1ccccc1Br)Nc1ccc(S(=O)(=O)N2CCCCC2)cc1 [NP16-XL-016, 3-(6-bromophenyl)-N-[4-(1-piperidine-1-sulfonyl)phenyl] acrylamide]
- bacteria count across major organs [7]: statistically significant reduction
- wound healing compared with 2% Mupirocin and Linezolid ([8]; oral 30 mg/kg twice a day): statistically significant improvement
- visual wound healing (observed size of the closure) among the three groups ([8]; oral BID for 7 days, FIG. 11B): best visual wound healing
- solubility in two biorelevant media relative to IM032-C1 ([1]; pH 2 and pH 7.4, fold higher than IM032-C1): > 20 ×
- bactericidal effect (reduction in optical density) [9]: not observed
